# According to patent publication US9669015B2, “Piperidine-2, 6-dione derivatives and their use as tumor necrosis factor inhibitors” (Tianjin Hemay Bio-Tech Co., Ltd., priority 2005, dated 2017):
# Tests used:
# [1] = Solubility in water; type: physicochemical
# [2] = test system: TNFα released by PBMCs; assay: Inhibition of TNFα released by PBMCs after LPS stimulation in vitro (ELISA); type: cell-based, human; conditions: for Inhibition Degree (%): TNFα inhibition rate, LPS 0.1 μg/ml-stimulated PBMCs, compound concentration 3.0 μM; for EC50: concentration giving 50% TNFα inhibition, LPS-stimulated PBMCs, nonlinear regression
# Source text: Pharmacological Research: Effects of Monocyte (PBMC) Stimulation by LPS on TNFα
# Cytokine TNFα released by PBMCs in peripheral blood after lip polysaccharide (LPS) stimulation in vitro was studied. The followings are research methods of cytokine TNFα released by PBMCs, which are inhibited by compounds of the invention.
# PBMCs were obtained from blood of at least three volunteers after heparin treatment, by the method of gradient extraction. PBMCs were collected and washed with 1640 culture medium three times (10% calf serum, 2 mM L-glutamine, […] mercaptoethanol, 50 μg/ml streptomycin, 50 U/ml penicillin). The above PBMCs were placed onto a 24-well cell culture plate. The concentration was adjusted to 1×10^6 cells/ml with 1640 culture medium. Test compounds were dissolved in dimethylsulfoxide at an appropriate concentration. The resultant solution was added to the above cell culture medium and the culture plate was placed in a CO2 incubator (5% CO2, 90% humidity) for 1 hour. Then, LPS (Sigma) was added to adjust the concentration to 0.1 μg/ml (except for contrast). After 20 hrs of incubation, the content of TNFα in supernatant of the above PBMC culture medium was determined by ELISA kit (America Genzyme Co) using standard method. The measured value of the control (no active compound), and the measured value of the tested compounds was used to calculate the TNFα inhibition rate. The concentration of compounds giving a 50% TNFα inhibition (IC50 value) was calculated by nonlinear regression analysis. Each concentration was determined twice and an average value was obtained.
# [3] = Homo sapiens, PBMC, read-out: Inhibition Degree (%)
molecule,measurement,setting,value
"2-(1-(2-hydroxyethyl)-2,6-dioxopiperidin-3-yl)isoindolin-1,3-dione 2-(1-piperidyl)acetate hydrochloride [Example 14]",Solubility in water,[1],more than 100 mg/mL
"2-(1-(2-hydroxyethyl)-2,6-dioxopiperidin-3-yl)isoindolin-1,3-dione 2-(diethylamino)acetate hydrochloride [Example 10]",Solubility in water,[1],higher than 100 mg/mL
"4,5,6,7-tetrafluoro-2-(1-(2-methoxyethyl)-2,6-dioxopiperidin-3-yl)-4-nitroisoindoline-1,3-dione [Example 31]",Inhibition Degree (%),[2],62%
"4-fluoro-2-(1-(2-methoxyethyl)-2,6-dioxopiperidin-3-yl)-4-nitroisoindoline-1,3-dione [Example 30]",Inhibition Degree (%),[2],58%
"O=C1CCC(N2C(=O)c3ccccc3C2=O)C(=O)N1CCO (stereo not drawn) [Example 1, 2-(1-(2-Hydroxyethyl)-2,6-dioxopiperidin-3-yl)isoindoline-1,3-dione]",inhibition at 3 µM,[2]; [3],70%
"CCN(CC)CC(=O)OCCN1C(=O)CCC(N2C(=O)c3ccccc3C2=O)C1=O (stereo not drawn) [Example 9, 2-(1-(2-hydroxyethyl)-2,6-dioxopiperidin-3-yl)isoindolin-1,3-dione 2-(diethylamino)acetate]",Inhibition Degree (%),[2],20%
"O=C1CCC(N2C(=O)c3ccccc3C2=O)C(=O)N1CCCCO (stereo not drawn) [Example 22, 2-(1-(4-hydroxybutyl)-2,6-dioxopiperidin-3-yl)isoindoline-1,3-dione]",inhibition at 3 µM,[2]; [3],18%
"O=C1CCC(N2C(=O)c3cccc([N+](=O)[O-])c3C2=O)C(=O)N1CCO (stereo not drawn) [Example 24, 2-(1-(2-hydroxyethyl)-2,6-dioxopiperidin-3-yl)-4-nitroisoindoline-1,3-dione]",inhibition at 3 µM,[2]; [3],28%
"Nc1cccc2c1C(=O)N(C1CCC(=O)N(CCO)C1=O)C2=O (stereo not drawn) [Example 26, 4-amino-2-(1-(2-hydroxyethyl)-2,6-dioxopiperidin-3-yl)isoindoline-1,3-dione]",EC50,"[2]; Homo sapiens, PBMC",250 nM
same,inhibition at 3 µM,[2]; [3],95%
"COCCN1C(=O)CCC(N2C(=O)c3cccc(N)c3C2=O)C1=O (stereo not drawn) [Example 27, 4-amino-2-(1-(2-methoxyethyl)-2,6-dioxopiperidin-3-yl)isoindoline-1,3-dione]",EC50,"[2]; Homo sapiens, PBMC",300 nM
same,inhibition at 3 µM,[2]; [3],92%
"COCCN1C(=O)CCC(N2C(=O)c3cccc(NC(C)=O)c3C2=O)C1=O (stereo not drawn) [Example 28, N-(2-(1-(2-methoxyethyl)-2,6-dioxopiperidin-3-yl)-1,3-dioxoisoindolin-7-yl)acetamide]",inhibition at 3 µM,[2]; [3],78%
"COCCN1C(=O)CCC(N2C(=O)c3cccc(N(C)C)c3C2=O)C1=O (stereo not drawn) [Example 29, 4-(dimethylamino)-2-(1-(2-methoxyethyl)-2,6-dioxopiperidin-3-yl)isoindoline-1,3-dione]",inhibition at 3 µM,[2]; [3],64%
"O=C1CCC(N2C(=O)c3ccccc3C2=O)C(=O)N1 (stereo not drawn) [Thalidomide, reference compound]",inhibition at 100 µM,[2]; [3],22%
